Experimental data as given in patent US20130196927A1, “Smac Mimetic Therapy” (priority 2012, published 2013).

Target: T1, GFP-tagged cIAP-2 (Homo sapiens, UniProt Q13489)
T1 construct: expressed in transfected cells
Experiment: GFP-tagged cIAP-2 degradation assay (loss of GFP signal)
Format: cell-based
Conditions: GFP-cIAP expressing melanoma cell line A375, treatment for two hours; read-out: IC50 for GFP-tagged cIAP-2 degradation
From the text: To evaluate the Smac-mimetic activity in cancer cell lines, we have developed intra-cellular green fluorescence protein (GFP)-tagged cIAP-1 and GFP-tagged cIAP-2 assays. […].

T1 sequence (Q13489 whole entry): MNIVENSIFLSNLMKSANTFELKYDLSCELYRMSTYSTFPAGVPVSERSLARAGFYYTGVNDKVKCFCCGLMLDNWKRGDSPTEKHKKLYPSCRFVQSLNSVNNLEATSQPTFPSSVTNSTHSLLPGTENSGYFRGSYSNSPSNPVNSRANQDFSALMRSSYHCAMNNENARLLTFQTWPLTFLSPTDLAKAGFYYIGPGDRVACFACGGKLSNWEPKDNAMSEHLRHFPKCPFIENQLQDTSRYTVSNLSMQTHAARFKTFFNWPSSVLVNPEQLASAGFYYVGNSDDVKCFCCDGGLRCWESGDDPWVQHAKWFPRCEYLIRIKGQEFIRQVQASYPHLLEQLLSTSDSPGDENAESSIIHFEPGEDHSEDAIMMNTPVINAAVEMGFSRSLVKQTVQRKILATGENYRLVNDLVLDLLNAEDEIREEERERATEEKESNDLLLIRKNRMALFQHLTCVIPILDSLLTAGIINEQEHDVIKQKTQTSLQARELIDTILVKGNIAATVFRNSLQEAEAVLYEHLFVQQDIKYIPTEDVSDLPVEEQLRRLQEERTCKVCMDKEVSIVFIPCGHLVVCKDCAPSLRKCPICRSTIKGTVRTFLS

## CC[C@H](NC(=O)[C@H](C)NC)C(=O)N1C[C@@H](O)C[C@H]1Cc1c(-c2[nH]c3cc(F)ccc3c2C[C@@H]2C[C@H](O)CN2C(=O)[C@H](CC)NC(=O)[C@H](C)NC)[nH]c2cc(F)ccc12 [Compound 15, birinapant]
  DC50: 150 nM
